30 compounds from ChEMBL document CHEMBL1201862, “PubChem BioAssay data set” (2004) can be followed below.

Calls of active or inactive are those of the source.

T2 sequence (P08684 whole entry): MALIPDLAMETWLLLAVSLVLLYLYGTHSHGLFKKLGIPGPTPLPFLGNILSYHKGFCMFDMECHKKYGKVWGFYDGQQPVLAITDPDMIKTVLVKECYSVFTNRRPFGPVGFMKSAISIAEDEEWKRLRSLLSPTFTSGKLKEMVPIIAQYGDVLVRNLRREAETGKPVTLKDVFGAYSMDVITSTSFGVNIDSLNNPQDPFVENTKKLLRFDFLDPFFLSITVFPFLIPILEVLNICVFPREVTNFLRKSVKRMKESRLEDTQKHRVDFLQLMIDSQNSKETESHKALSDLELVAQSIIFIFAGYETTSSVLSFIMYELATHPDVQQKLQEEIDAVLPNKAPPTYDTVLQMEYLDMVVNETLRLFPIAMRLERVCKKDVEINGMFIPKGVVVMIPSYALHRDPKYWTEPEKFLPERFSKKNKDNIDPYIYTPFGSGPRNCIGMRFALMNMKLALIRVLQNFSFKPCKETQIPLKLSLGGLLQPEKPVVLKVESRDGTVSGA

Test system in one test: not listed separately
Nature of the test: HEK-293T viability loss after treatment – luminescence, T-cell screen hits, cytotoxicity control for TCR NF-kB inhibitor project, dose response (AID 489026).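 Note: cells exposed to compound about 14 hours before the viability readout.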 Format: functional, cell-based.
Settings: not given
Regarding `COC(=O)CCC(=O)NC(=S)Nc1sc(C)c(C)c1C(N)=O`, the IC50 is > 80 µM (inactive).

For `C/C=C(\C)C(=O)N[C@@H](c1ccccc1)[C@@H](O)C(=O)O[C@H]1C[C@@]2(O)[C@@H](OC(=O)c3ccccc3)C3[C@](C)(C(=O)[C@H](OC(C)=O)C(=C1C)C2(C)C)[C@@H](O)C[C@H]1OC[C@@]31OC(C)=O` (stereo not given in full), the IC50 is > 80 µM (inactive).

A further test deals with Cytochrome P450 2D6 (Homo sapiens, UniProt P10635).
Chain of Cytochrome P450 2D6 (P10635 whole entry): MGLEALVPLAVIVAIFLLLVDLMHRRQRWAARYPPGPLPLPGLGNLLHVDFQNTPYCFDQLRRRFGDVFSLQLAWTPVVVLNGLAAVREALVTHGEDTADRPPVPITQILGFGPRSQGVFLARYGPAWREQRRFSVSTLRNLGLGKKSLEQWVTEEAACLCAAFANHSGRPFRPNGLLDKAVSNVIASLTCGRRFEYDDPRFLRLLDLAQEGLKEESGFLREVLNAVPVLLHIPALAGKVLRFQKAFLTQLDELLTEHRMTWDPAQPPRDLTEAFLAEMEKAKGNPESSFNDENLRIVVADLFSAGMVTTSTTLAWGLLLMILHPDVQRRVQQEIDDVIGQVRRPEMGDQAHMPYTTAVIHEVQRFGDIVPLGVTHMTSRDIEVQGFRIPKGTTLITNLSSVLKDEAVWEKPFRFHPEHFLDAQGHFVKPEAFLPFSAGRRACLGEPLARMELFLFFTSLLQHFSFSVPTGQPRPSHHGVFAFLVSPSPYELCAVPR
Assay: not given
Settings: not given
Regarding `CC1CCc2c(C(=O)Nc3nccs3)csc2C1` (stereo not given), the AC50 was 3.55 µM (inconclusive).

A further test addresses T1, Replicative DNA helicase DnaB (Mycobacterium tuberculosis, UniProt P9WMR3).
T1 sequence (P9WMR3 whole entry): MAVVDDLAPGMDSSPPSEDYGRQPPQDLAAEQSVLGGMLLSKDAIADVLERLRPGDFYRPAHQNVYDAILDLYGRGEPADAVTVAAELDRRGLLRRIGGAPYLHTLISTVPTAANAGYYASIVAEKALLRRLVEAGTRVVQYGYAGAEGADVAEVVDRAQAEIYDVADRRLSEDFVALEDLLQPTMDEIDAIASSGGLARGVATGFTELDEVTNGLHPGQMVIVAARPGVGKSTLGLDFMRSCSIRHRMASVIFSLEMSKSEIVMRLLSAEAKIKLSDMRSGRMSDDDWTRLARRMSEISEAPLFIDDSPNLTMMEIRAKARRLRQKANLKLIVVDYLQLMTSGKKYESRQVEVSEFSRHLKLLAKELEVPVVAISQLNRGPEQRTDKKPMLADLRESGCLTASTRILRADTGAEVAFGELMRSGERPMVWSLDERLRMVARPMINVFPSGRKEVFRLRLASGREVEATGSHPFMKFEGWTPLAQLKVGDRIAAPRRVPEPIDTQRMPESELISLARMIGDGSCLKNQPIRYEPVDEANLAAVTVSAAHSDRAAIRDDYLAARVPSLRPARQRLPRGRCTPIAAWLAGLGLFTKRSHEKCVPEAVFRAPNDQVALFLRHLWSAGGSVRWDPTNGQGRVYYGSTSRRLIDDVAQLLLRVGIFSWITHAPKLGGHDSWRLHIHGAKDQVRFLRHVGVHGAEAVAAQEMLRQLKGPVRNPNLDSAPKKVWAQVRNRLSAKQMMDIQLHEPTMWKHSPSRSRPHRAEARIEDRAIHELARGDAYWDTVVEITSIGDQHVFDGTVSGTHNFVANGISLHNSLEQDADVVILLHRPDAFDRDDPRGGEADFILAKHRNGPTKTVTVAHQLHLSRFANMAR
Nature of the test: DnaB intein splicing inhibitors, dose response, biochemical, cell-free fluorescence (AID 449749).
Settings: not given
Format: functional.
Take `N#CC1=C(N)Oc2nc(-c3ccccc3)[nH]c2C1c1cccnc1` (stereo not given): the concentration at half-maximal activity (AC50) is 11.3 µM (active).

A further test addresses T2, Cytochrome P450 3A4 (Homo sapiens, UniProt P08684).
Assay: not given
Settings: not given
Regarding `O=C(Cn1c(C(F)(F)F)nc2ccccc21)c1ccc(F)cc1`, the AC50 was 12.6 µM (inconclusive).

The next test addresses T2, Cytochrome P450 3A4.
Assay: not given
The note with it: Potency.
With `Oc1ccccc1O` [CATECHOL], the AC50 was 10 µM (inconclusive).

`COc1ccc(OC2C=CC(c3ccccc3)OC2CO)c(C(C)=O)c1` (stereo not given): the AC50 is 3.98 µM (inconclusive).

`COc1ccc(C2OCC3(COC(C)=O)C(C)C=C(C)C2C3C)cc1` (stereo not given): the AC50 was 15.8 µM (inconclusive).

Take `Cc1nc(N2CCOCC2)c2nc(-c3ccccc3)n(CCCN3CCCCC3C)c2n1` (stereo not given): the AC50 is 15.8 µM (inconclusive).

For the compound `CC(=O)OC1CC2C(C)(C)C(=O)[C@@H]3OC3[C@@]2(C)C2CC[C@]3(C)C(=CC(=O)OC3c3ccoc3)[C@]12C` (stereo not given in full), the AC50 is 15.8 µM (inconclusive).

Turning to `CCC12C=CCN3CCC4(c5ccc(OC)cc5N(C)C4[C@@](O)(C(=O)OC)C1OC(C)=O)C32` (stereo not given in full), the concentration at half-maximal activity (AC50) was 3.98 µM (inconclusive).

The target in another test is T3, Protein skinhead-1 (Caenorhabditis elegans, UniProt P34707).
T3 sequence (P34707 whole entry): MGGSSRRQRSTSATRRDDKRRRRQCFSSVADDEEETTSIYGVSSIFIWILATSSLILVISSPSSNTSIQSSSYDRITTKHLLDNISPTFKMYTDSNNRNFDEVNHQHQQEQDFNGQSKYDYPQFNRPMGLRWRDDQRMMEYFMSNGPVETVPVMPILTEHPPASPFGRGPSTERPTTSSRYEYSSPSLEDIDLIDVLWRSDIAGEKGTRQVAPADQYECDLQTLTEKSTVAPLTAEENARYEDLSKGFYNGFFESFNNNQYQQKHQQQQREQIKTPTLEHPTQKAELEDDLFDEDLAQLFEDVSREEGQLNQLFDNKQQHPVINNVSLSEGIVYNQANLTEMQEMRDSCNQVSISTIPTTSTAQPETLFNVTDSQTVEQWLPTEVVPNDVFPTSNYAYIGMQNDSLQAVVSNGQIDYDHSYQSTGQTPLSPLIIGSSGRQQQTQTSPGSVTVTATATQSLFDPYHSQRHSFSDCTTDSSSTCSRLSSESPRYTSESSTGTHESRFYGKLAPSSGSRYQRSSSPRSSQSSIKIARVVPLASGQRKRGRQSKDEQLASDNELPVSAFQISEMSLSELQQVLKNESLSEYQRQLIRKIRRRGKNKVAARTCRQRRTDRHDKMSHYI
Assay: not given
Type of test: functional.
Settings: not given
With `COc1ccc(C(=O)c2oc3ccc(OC)cc3c2N)cc1`, the IC50 was > 100 µM (inactive).

Consider `O=C(Cn1c(C(F)(F)F)nc2ccccc21)c1ccc(F)cc1`, for which the IC50 was > 100 µM (inactive).

Turning to `CC1CCc2c(C(=O)Nc3nccs3)csc2C1` (stereo not given), the IC50 was > 100 µM (inactive).

In the case of `O=C(Nc1nc2ccccc2s1)c1ccccc1`, the IC50 was > 100 µM (inactive).

As to `O=C(NC(=S)Nc1cccc2c(O)cccc12)c1cccc(Br)c1`, the IC50 is > 100 µM (inactive).

The target of the next test is T4, Protein RecA (Mycobacterium tuberculosis, UniProt P9WHJ3).
T4 sequence (P9WHJ3 whole entry): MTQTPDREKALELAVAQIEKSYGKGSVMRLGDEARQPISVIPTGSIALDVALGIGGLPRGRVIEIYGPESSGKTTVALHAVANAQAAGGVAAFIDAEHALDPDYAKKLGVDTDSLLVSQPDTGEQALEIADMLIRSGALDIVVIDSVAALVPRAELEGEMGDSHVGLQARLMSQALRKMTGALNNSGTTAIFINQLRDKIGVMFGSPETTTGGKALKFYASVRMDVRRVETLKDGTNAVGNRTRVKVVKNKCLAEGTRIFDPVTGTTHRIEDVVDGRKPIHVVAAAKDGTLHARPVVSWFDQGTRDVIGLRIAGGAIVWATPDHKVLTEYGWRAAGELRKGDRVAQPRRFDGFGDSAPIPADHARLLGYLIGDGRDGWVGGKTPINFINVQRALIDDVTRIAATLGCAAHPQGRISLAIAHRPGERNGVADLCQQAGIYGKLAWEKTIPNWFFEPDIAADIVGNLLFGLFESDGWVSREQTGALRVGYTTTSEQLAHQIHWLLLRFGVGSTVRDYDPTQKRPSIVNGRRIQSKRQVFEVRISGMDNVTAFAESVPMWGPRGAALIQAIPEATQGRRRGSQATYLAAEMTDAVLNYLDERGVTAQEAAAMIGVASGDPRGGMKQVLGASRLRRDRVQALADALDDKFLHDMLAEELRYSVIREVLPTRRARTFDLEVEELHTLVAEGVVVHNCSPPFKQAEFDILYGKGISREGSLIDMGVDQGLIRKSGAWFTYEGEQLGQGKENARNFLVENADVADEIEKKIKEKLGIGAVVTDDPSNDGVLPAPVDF
Nature of the test: Fluorescence Cell-Free Homogeneous Dose Retest to Identify Inhibitors of RecA-Intein Splicing Activity. [Related pubchem assays (depositor defined):AID2097, AID2223, AID489010, AID492950]. Format: functional.
Settings: not given
Regarding `N#CC1=C(N)Oc2nc(-c3ccccc3)[nH]c2C1c1cccnc1` (stereo not given), the concentration giving a half-maximal response (EC50) was 2.6 µM (active).

Test system in another test: not listed separately
Nature of the test: A cytotoxicity screen of small molecule inhibitors of the PhoP region in Salmonella typhi identified in the primary screen. [Related pubchem assays: 1850, 1864, 1985 ]. Type of test: functional.
Settings: not given
Take `O=C(C[n+]1ccc(-c2ccccc2)cc1)Nc1ccc([N+](=O)[O-])cc1`: the EC50 was > 50 µM (active).

Take `O=C1CSC(=S)N1c1cccc(O)c1`: the half-maximal effective concentration (EC50) is > 50 µM (active).

For the compound `CCN(CC)C(=O)C(=O)c1cn(CC(=O)N2CCc3ccccc3C2)c2ccccc12`, the EC50 was > 50 µM (active).

For the compound `COC(=O)c1ccc(NC(=O)CO/N=C2\CCCc3nonc32)cc1`, the EC50 was > 50 µM (active).

For `O=S(=O)(Nc1ncccn1)c1ccc(NC(=S)Nc2ccc(Cl)cc2)cc1`, the concentration giving a half-maximal response (EC50) is > 50 µM (active).

For the compound `Cc1nnc(SCC(=O)Nc2cc(S(=O)(=O)N3CCCC3)ccc2Cl)s1`, the EC50 was > 50 µM (active).

Consider `CC(=O)OC1=C(O)C(=O)c2ccccc2C1=O`, for which the EC50 is > 50 µM (active).

For a further test, the target named is T5, Calpain-2 catalytic subunit (Sus scrofa, UniProt P43367).
T5 sequence (P43367 whole entry): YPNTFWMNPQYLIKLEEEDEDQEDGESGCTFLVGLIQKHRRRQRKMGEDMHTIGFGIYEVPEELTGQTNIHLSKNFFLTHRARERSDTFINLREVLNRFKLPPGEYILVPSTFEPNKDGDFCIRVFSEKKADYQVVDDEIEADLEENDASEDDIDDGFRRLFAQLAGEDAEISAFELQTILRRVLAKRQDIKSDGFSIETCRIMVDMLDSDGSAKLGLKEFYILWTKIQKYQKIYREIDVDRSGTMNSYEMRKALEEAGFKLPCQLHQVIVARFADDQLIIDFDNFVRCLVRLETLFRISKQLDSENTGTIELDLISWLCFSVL
Nature of the test: m-calpain protease blockers, concentration series – biochemical, fluorogenic peptide substrate, dose response (AID 1420). Type of test: functional.
Settings: not given
Regarding `Cn1c(NC(=O)/C=C\c2ccccc2)cc(=O)n(C)c1=O`, the concentration for half-maximal inhibition (IC50) is 7.1 µM (not active).

Test system in a further test: not listed separately
Nature of the test: intracellular Trypanosoma cruzi inhibitors in host cells – cell-based, plate reader, cherry-pick samples, set 3, dose response (AID 651818).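 Note: compounds incubated with infected cells for about four days.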
Settings: not given
Type of test: functional.
Take `C[C@@H]1CN([C@H](C)CO)C(=O)Cc2cc(NC(=O)Nc3ccc4c(c3)OCO4)ccc2O[C@@H]1CN(C)Cc1ccc(Oc2ccccc2)cc1`: the AC50 is 2.87 µM (active).

Turning to `C[C@@H]1CN([C@@H](C)CO)C(=O)c2cccc(NC(=O)Nc3ccc4c(c3)OCO4)c2O[C@@H]1CN(C)Cc1ccc(C(=O)Nc2ccccc2N)cc1`, the AC50 is 3.18 µM (active).

Turning to `CNC[C@H]1Oc2c(NC(=O)Nc3ccc(OC)cc3)cccc2C(=O)N([C@H](C)CO)C[C@@H]1C`, the AC50 is 20 µM (inactive).

As to `C[C@@H]1CN([C@@H](C)CO)C(=O)c2cccc(NC(=O)Nc3ccc(C(F)(F)F)cc3)c2O[C@@H]1CN(C)Cc1ccc(C(=O)Nc2ccccc2N)cc1`, the half-maximal activity concentration (AC50) was 0.787 µM (active).

In the case of `C[C@@H]1CCCCO[C@H](CN(C)Cc2ccc(C(=O)Nc3ccccc3N)cc2)[C@@H](C)CN([C@H](C)CO)C(=O)c2cc(NS(=O)(=O)c3ccc(F)cc3)ccc2O1`, the AC50 is 1.83 µM (active).

Another test concerns the target T6, Leucine aminopeptidase (Plasmodium falciparum 3D7, UniProt Q8IL11).
T6 sequence (Q8IL11 whole entry): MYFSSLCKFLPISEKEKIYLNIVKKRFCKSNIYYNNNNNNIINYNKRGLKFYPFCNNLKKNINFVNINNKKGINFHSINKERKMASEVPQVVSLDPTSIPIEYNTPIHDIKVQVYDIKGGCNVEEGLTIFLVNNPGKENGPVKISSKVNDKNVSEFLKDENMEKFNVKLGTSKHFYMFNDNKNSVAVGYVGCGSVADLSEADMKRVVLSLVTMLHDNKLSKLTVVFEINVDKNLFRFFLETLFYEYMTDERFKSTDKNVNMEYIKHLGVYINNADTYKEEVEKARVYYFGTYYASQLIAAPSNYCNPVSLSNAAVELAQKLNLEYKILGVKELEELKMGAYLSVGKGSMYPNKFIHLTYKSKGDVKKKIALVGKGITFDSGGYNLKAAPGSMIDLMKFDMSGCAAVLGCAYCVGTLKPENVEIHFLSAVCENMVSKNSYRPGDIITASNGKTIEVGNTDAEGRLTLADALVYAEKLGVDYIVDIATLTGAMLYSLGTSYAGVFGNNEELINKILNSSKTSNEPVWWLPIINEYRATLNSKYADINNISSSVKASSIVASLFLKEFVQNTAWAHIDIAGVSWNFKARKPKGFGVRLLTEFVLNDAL
Nature of the test: P. falciparum M17LAP inhibitors, primary screen, biochemical, fluorogenic H-Leu-NHMec substrate, 1536-well (AID 1619). Type of test: functional.
Settings: not given
For the compound `Cn1c(NC(=O)/C=C\c2ccccc2)cc(=O)n(C)c1=O`, the IC50 is 78.4 µM (active).

For the compound `CCOc1ccc(NC(=O)CSc2n[nH]c(N)n2)c([N+](=O)[O-])c1`, the IC50 is 12.7 µM (active).

Turning to `O=C(c1ccco1)c1c[nH]nc1-c1ccc(Cl)cc1O`, the IC50 is 101 µM (active).

For `COc1nccnc1NS(=O)(=O)c1ccc(/N=C/c2c(C)[nH]n(-c3ccccc3)c2=O)cc1`, the 50% inhibitory concentration (IC50) is 35 µM (active).

Consider `N#CC1=C(N)Oc2nc(-c3ccccc3)[nH]c2C1c1cccnc1` (stereo not given), for which the IC50 is 66.6 µM (active).

What is called IC50 is the concentration that gives 50% inhibition. As a reminder, the AC50 is the concentration at which the activity in the assay is half-maximal. One may read the EC50 as the midpoint of the concentration-response curve.
